Measurements: patent publication US12168086B2, “Hemostatic devices and methods of use” (priority 2016, dated 2024)

Assays:
myofibroblast formation = settings: Ajmal et al. (2003); cited from earlier work
[1] = PBS pH 7.4 without TXA, with TXA 0.05 mg/mL or 5 mg/mL, over 25 hours
blood clotting = settings: in vitro, 1.2 mg of TXA alone
[2] = time to reach plasma concentrations; settings: in vivo

SMILES: O=S(=O)([O-])CCS.[Na+] [MESNA, sodium 2-mercaptoethane sulfonate]
- myofibroblast formation (myofibroblast formation): diminish myofibroblast formation

SMILES: CO[C@H]1/C=C/O[C@@]2(C)Oc3c(C)c(O)c4c(O)c(c(/C=N/N5CCN(C)CC5)c(O)c4c3C2=O)NC(=O)/C(C)=C\C=C\[C@H](C)[C@H](O)[C@@H](C)[C@@H](O)[C@@H](C)[C@H](OC(C)=O)[C@@H]1C [rifampin]
- elution rate from p22-27.5 polymer [1]: not affected by the presence of TXA

SMILES: NC[C@H]1CC[C@H](C(=O)O)CC1 [tranexamic acid]
- time to induce blood clotting (blood clotting): about 19 minutes
- time to reach plasma concentrations [2]: 5 to 15 min
